According to patent US20220282217A1, “COMPOSITIONS AND METHODS FOR PREPARING T CELL COMPOSITIONS AND USES THEREOF” (priority 2019, published 2022):
Where a SMILES comes first, the peptide text is derived from it.

Columns and labels:
HLA-A03.01 = HLA-A03.01 (Homo sapiens, UniProt P04439); assay: Class I MHC peptide binding affinity (displacement of radiolabeled reference peptide); conditions: allele A03.01; read-out: Observed Affinity (IC50; (nM))
HLA-A02.01 [1] = molecular target: T1, HLA-A02.01 (Homo sapiens, UniProt P04439, D140Y/D185E/D98H/E176V/E277Q/G131W/G231S/I119V/I121R/I166T/I218V/N151K/N90K/P208A/P217A/Q86G/Q94H/R138H/R169H); assay: Class I MHC peptide binding stability (pMHC-I dissociation, 125I-labeled light chain); conditions: allele A02.01
T1 construct: made in house; host or cells: E. coli

HLA-A24.02 = assay: Class I MHC peptide binding affinity (displacement of radiolabeled reference peptide); set-up: species or system human; conditions: allele A24.02; read-out: Observed Affinity (IC50; (nM))
HLA-A02.01 [2] = molecular target: HLA-A02.01 (Homo sapiens, UniProt P04439, D140Y/D185E/D98H/E176V/E277Q/G131W/G231S/I119V/I121R/I166T/I218V/L300P/L318F/N151K/N90K/P208A/P217A/Q86G/Q94H/R138H/R169H/T345S); assay: as above; conditions: allele A02.01; read-out: Observed Affinity (IC50; (nM))
In short: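 Peptides compete against a prebound radiolabeled reference on MHCI over 2 days at several concentrations.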

Row | Structure (SMILES) | IC50 (HLA-A03.01) | IC50 (HLA-A24.02) | also measured
1 | CC(C)C[C@H](NC(=O)[C@@H](N)CCCNC(=N)N)C(=O)N[C@@H](CO)C(=O)N[C@@H](CO)C(=O)N[C@@H](CS)C(=O)N[C@H](C(=O)N1CCC[C@H]1C(=O)N[C@H](C(=O)N[C@@H](C)C(=O)O)C(C)C)C(C)C | 439 nM |  | Stability (T1/2 (h)) (HLA-A02.01 [1]): 18.7 h
2 | CC[C@H](C)[C@H](NC(=O)[C@H](Cc1ccc(O)cc1)NC(=O)[C@H](CS)NC(=O)[C@H](Cc1ccccc1)NC(=O)[C@@H](N)Cc1ccccc1)C(=O)N[C@@H](CC(C)C)C(=O)N[C@@H](CC(N)=O)C(=O)N[C@H](C(=O)N[C@@H](CCSC)C(=O)N[C@@H](Cc1ccccc1)C(=O)O)[C@@H](C)O (H-FFCYILNTMF-OH; N-terminus and C-terminus assumed) |  | 73.4 nM | 
3 | CC(C)C[C@H](NC(=O)[C@H](CS)NC(=O)[C@H](CO)NC(=O)[C@H](Cc1ccccc1)NC(=O)[C@H](CC(C)C)NC(=O)[C@H](CCCCN)NC(=O)[C@H](Cc1ccccc1)NC(=O)CN)C(=O)N[C@@H](CO)C(=O)N[C@@H](Cc1ccccc1)C(=O)O (H-GFKLFSCLSF-OH; N-terminus and C-terminus assumed) |  | 643 nM | 
4 | CC(C)C[C@H](NC(=O)[C@H](CC(C)C)NC(=O)[C@H](CCC(=O)O)NC(=O)[C@@H]1CCCN1C(=O)[C@H](Cc1ccccc1)NC(=O)[C@@H](N)CCCCN)C(=O)N[C@@H](CS)C(=O)N[C@H](C(=O)N[C@@H](Cc1c[nH]c2ccccc12)C(=O)O)C(C)C (H-KFPELLCVW-OH; N-terminus and C-terminus assumed) |  | 13.7 nM | 
5 | CC(C)C[C@H](NC(=O)[C@H](Cc1ccccc1)NC(=O)[C@H](CO)NC(=O)[C@H](CC(C)C)NC(=O)[C@H](CS)NC(=O)[C@H](CO)NC(=O)[C@H](Cc1ccccc1)NC(=O)[C@H](CC(C)C)NC(=O)[C@@H](N)CCCCN)C(=O)N[C@@H](CO)C(=O)O (H-KLFSCLSFLS-OH; N-terminus and C-terminus assumed) | 104 nM |  | IC50 (HLA-A02.01 [2]): 0.6 nM
6 | CC[C@H](C)[C@H](NC(=O)[C@H](Cc1c[nH]c2ccccc12)NC(=O)[C@H](CC(C)C)NC(=O)[C@@H]1CCCN1C(=O)[C@H](CO)NC(=O)[C@H](CCCNC(=N)N)NC(=O)[C@H](CC(C)C)NC(=O)[C@@H](N)CCCCN)C(=O)N[C@@H](Cc1ccccc1)C(=O)O (H-KLRSPLWIF-OH; N-terminus and C-terminus assumed) |  | 828 nM | 
7 | CSCC[C@H](NC(=O)[C@H](CCC(=O)O)NC(=O)[C@H](CC(C)C)NC(=O)[C@H](CC(C)C)NC(=O)[C@H](CC(C)C)NC(=O)CNC(=O)[C@H](Cc1ccc(O)cc1)NC(=O)[C@@H](N)CC(C)C)C(=O)N[C@@H](CC(C)C)C(=O)O (H-LYGLLLEML-OH; N-terminus and C-terminus assumed) |  | 0.8 nM | 
8 | CC[C@H](C)[C@H](NC(=O)[C@H](Cc1ccc(O)cc1)NC(=O)[C@@H](N)CC(C)C)C(=O)N[C@H](C(=O)N[C@@H](C)C(=O)N[C@@H](Cc1ccccc1)C(=O)N[C@@H](Cc1ccccc1)C(=O)N[C@@H](Cc1ccccc1)C(=O)N[C@@H](CS)C(=O)N[C@@H](Cc1c[nH]c2ccccc12)C(=O)O)[C@@H](C)O (H-LYITAFFFCW-OH; N-terminus and C-terminus assumed) |  | 45.3 nM | 
9 | CC[C@H](C)[C@H](NC(=O)[C@H](Cc1ccc(O)cc1)NC(=O)[C@@H](N)CC(C)C)C(=O)N[C@H](C(=O)N[C@@H](C)C(=O)N[C@@H](Cc1ccccc1)C(=O)N[C@@H](Cc1ccccc1)C(=O)N[C@@H](CC(C)C)C(=O)N[C@@H](CC(C)C)C(=O)O)[C@@H](C)O (H-LYITAFFLL-OH; N-terminus and C-terminus assumed) |  | 0.1 nM | 
10 | CC[C@H](C)[C@H](NC(=O)[C@H](Cc1ccc(O)cc1)NC(=O)[C@@H](N)CC(C)C)C(=O)N[C@H](C(=O)N[C@@H](C)C(=O)N[C@@H](Cc1ccccc1)C(=O)N[C@@H](Cc1ccccc1)C(=O)N[C@@H](CC(C)C)C(=O)N[C@@H](CC(C)C)C(=O)N[C@@H](CC(=O)O)C(=O)O)[C@@H](C)O (H-LYITAFFLLD-OH; N-terminus and C-terminus assumed) |  | 0.4 nM | 
11 | CC[C@H](C)[C@H](NC(=O)[C@H](CCCCN)NC(=O)[C@H](CO)NC(=O)[C@H](CCC(=O)O)NC(=O)[C@H](C)NC(=O)[C@H](CCCCN)NC(=O)[C@H](CC(C)C)NC(=O)[C@H](Cc1ccccc1)NC(=O)[C@@H](N)CCSC)C(=O)O (H-MFLKAESKI-OH; N-terminus and C-terminus assumed) |  | 332 nM | 
12 | CC(C)C[C@H](NC(=O)[C@@H](NC(=O)[C@H](CO)NC(=O)[C@H](CO)NC(=O)[C@H](CC(C)C)NC(=O)[C@@H](N)CCCNC(=N)N)C(C)C)C(=O)N[C@@H](CCC(N)=O)C(=O)N[C@@H](CCCNC(=N)N)C(=O)N[C@@H](Cc1ccccc1)C(=O)O (H-RLSSVLQRF-OH; N-terminus and C-terminus assumed) |  | 28.2 nM | 
13 | CC(C)[C@H](NC(=O)[C@@H](N)CCCNC(=N)N)C(=O)N[C@@H](CC(N)=O)C(=O)N[C@H](C(=O)N[C@@H](C)C(=O)N[C@@H](Cc1c[nH]c2ccccc12)C(=O)N[C@@H](CCCCN)C(=O)N[C@H](C(=O)N[C@@H](CCCCN)C(=O)O)[C@@H](C)O)[C@@H](C)O (H-RVNTAWKTK-OH; N-terminus and C-terminus assumed) | 8.6 nM |  | 
14 | CC(C)[C@H](NC(=O)[C@@H](N)CCCNC(=N)N)C(=O)N[C@@H](CC(N)=O)C(=O)N[C@H](C(=O)N[C@@H](C)C(=O)N[C@@H](Cc1c[nH]c2ccccc12)C(=O)N[C@@H](CCCCN)C(=O)N[C@H](C(=O)N[C@@H](CCCCN)C(=O)N[C@@H](CCCCN)C(=O)O)[C@@H](C)O)[C@@H](C)O (H-RVNTAWKTKK-OH; N-terminus and C-terminus assumed) | 2.3 nM |  | 
15 | CC(C)C[C@H](NC(=O)[C@H](C)NC(=O)[C@@H]1CCCN1C(=O)[C@@H](NC(=O)[C@H](CCCCN)NC(=O)[C@H](CCCCN)NC(=O)[C@H](CC(C)C)NC(=O)[C@@H](N)CO)C(C)C)C(=O)N[C@@H](CCCCN)C(=O)N[C@@H](CCCCN)C(=O)O (H-SLKKVPALKK-OH; N-terminus and C-terminus assumed) | 9.6 nM |  | 
16 | CC(C)C[C@H](NC(=O)[C@@H](N)CO)C(=O)N[C@@H](CCC(N)=O)C(=O)N1CCC[C@H]1C(=O)N1CCC[C@H]1C(=O)N1CCC[C@H]1C(=O)N1CCC[C@H]1C(=O)NCC(=O)N[C@@H](Cc1ccccc1)C(=O)N[C@@H](CCCCN)C(=O)O (H-SLQPPPPGFK-OH; N-terminus and C-terminus assumed) | 19 nM |  | 
17 | CC(C)C[C@H](NC(=O)[C@@H](N)[C@@H](C)O)C(=O)N[C@@H](CC(N)=O)C(=O)N[C@@H](CO)C(=O)N1CCC[C@H]1C(=O)N1CCC[C@H]1C(=O)N[C@@H](CC(C)C)C(=O)N[C@@H](CCCCN)C(=O)N[C@@H](CCCCN)C(=O)O (H-TLNSPPLKK-OH; N-terminus and C-terminus assumed) | 5.4 nM |  | 
18 | CC(C)C[C@H](NC(=O)[C@@H](NC(=O)[C@@H](N)[C@@H](C)O)[C@@H](C)O)C(=O)N[C@@H](CC(N)=O)C(=O)N[C@@H](CO)C(=O)N1CCC[C@H]1C(=O)N1CCC[C@H]1C(=O)N[C@@H](CC(C)C)C(=O)N[C@@H](CCCCN)C(=O)O (H-TTLNSPPLK-OH; N-terminus and C-terminus assumed) | 9.8 nM |  | 
19 | CC(C)C[C@H](NC(=O)[C@@H](NC(=O)[C@@H](N)[C@@H](C)O)[C@@H](C)O)C(=O)N[C@@H](CC(N)=O)C(=O)N[C@@H](CO)C(=O)N1CCC[C@H]1C(=O)N1CCC[C@H]1C(=O)N[C@@H](CC(C)C)C(=O)N[C@@H](CCCCN)C(=O)N[C@@H](CCCCN)C(=O)O (H-TTLNSPPLKK-OH; N-terminus and C-terminus assumed) | 14.3 nM |  | 
20 | CC[C@H](C)[C@H](NC(=O)[C@H](C)NC(=O)[C@H](CS)NC(=O)[C@@H](NC(=O)[C@H](Cc1ccc(O)cc1)NC(=O)[C@@H](N)[C@@H](C)O)[C@@H](C)O)C(=O)N[C@H](C(=O)N[C@H](C(=O)N[C@H](C(=O)N[C@@H](CCCCN)C(=O)O)C(C)C)[C@@H](C)O)[C@@H](C)O (H-TYTCAITTVK-OH; N-terminus and C-terminus assumed) | 2360 nM |  | 
21 | CC[C@H](C)[C@H](NC(=O)[C@H](Cc1ccc(O)cc1)NC(=O)[C@H](CC(C)C)NC(=O)[C@H](CO)NC(=O)[C@H](CC(N)=O)NC(=O)[C@H](CS)NC(=O)[C@H](CCC(=O)O)NC(=O)[C@H](Cc1c[nH]cn1)NC(=O)[C@H](CC(C)C)NC(=O)[C@@H](N)C(C)C)C(=O)O (H-VLHECNSLYI-OH; N-terminus and C-terminus assumed) | 10500 nM |  | IC50 (HLA-A02.01 [2]): 10 nM; Stability (T1/2 (h)) (HLA-A02.01 [1]): 5.1 h
22 | CSCC[C@H](NC(=O)[C@@H](N)C(C)C)C(=O)N[C@@H](C)C(=O)NCC(=O)N[C@@H](CC(C)C)C(=O)NCC(=O)N[C@@H](CO)C(=O)N1CCC[C@H]1C(=O)N[C@@H](Cc1ccc(O)cc1)C(=O)N[C@H](C(=O)O)C(C)C (H-VMAGLGSPYV-OH; N-terminus and C-terminus assumed) | 11200 nM |  | IC50 (HLA-A02.01 [2]): 102 nM; Stability (T1/2 (h)) (HLA-A02.01 [1]): 2.9 h
23 | CC(C)C[C@H](NC(=O)[C@H](C)NC(=O)[C@@H]1CCCN1C(=O)[C@@H](NC(=O)[C@H](CCCCN)NC(=O)[C@H](CCCCN)NC(=O)[C@H](CC(C)C)NC(=O)[C@H](CO)NC(=O)[C@@H](N)Cc1c[nH]c2ccccc12)C(C)C)C(=O)N[C@@H](CCCCN)C(=O)O (H-WSLKKVPALK-OH; N-terminus and C-terminus assumed) | 94.9 nM |  | 
24 | CSCC[C@H](NC(=O)[C@@H](N)Cc1ccc(O)cc1)C(=O)N[C@@H](Cc1ccccc1)C(=O)N[C@@H](CC(C)C)C(=O)N[C@@H](CCCCN)C(=O)N[C@@H](C)C(=O)N[C@@H](CCC(=O)O)C(=O)N[C@@H](CO)C(=O)N[C@@H](CCCCN)C(=O)O (H-YMFLKAESK-OH; N-terminus and C-terminus assumed) | 79.8 nM |  | 
